Results published in patent US12371428B2 (Exelixis, Inc., priority 2019, dated 2025).

Columns and labels:
[1] = target: Human KDR (residues 790-1356) (Homo sapiens (Human), UniProt P35968); experiment: Human KDR kinase assay, HTRF KinEase (Example B-2); assay type: biochemical
Summary of the method: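 Ten compound concentrations (3% DMSO final) were pre-plated, then KDR (790-1356) with biotinylated peptide in Mg/Mn/DTT buffer was added; ATP at Km (4.0 μM) started a 40 min room-temperature reaction. Detection used Eu-TK antibody and SA-XL665 in EDTA buffer; activity normalized to DMSO and reference inhibitor, IC50 by logistic fit.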

[2] = target: Mer (phospho-Mer, MERTK-transfected 293A cells) (Homo sapiens (Human), UniProt Q12866); experiment: Mer autophosphorylation ELISA in transient transfected 293A cells (Example H); assay type: cell-based; conditions: cellular activity; Mer autophosphorylation ELISA in transient transfected 293A cells
Mer (phospho-Mer, MERTK-transfected 293A cells), sequence (Q12866 21-999): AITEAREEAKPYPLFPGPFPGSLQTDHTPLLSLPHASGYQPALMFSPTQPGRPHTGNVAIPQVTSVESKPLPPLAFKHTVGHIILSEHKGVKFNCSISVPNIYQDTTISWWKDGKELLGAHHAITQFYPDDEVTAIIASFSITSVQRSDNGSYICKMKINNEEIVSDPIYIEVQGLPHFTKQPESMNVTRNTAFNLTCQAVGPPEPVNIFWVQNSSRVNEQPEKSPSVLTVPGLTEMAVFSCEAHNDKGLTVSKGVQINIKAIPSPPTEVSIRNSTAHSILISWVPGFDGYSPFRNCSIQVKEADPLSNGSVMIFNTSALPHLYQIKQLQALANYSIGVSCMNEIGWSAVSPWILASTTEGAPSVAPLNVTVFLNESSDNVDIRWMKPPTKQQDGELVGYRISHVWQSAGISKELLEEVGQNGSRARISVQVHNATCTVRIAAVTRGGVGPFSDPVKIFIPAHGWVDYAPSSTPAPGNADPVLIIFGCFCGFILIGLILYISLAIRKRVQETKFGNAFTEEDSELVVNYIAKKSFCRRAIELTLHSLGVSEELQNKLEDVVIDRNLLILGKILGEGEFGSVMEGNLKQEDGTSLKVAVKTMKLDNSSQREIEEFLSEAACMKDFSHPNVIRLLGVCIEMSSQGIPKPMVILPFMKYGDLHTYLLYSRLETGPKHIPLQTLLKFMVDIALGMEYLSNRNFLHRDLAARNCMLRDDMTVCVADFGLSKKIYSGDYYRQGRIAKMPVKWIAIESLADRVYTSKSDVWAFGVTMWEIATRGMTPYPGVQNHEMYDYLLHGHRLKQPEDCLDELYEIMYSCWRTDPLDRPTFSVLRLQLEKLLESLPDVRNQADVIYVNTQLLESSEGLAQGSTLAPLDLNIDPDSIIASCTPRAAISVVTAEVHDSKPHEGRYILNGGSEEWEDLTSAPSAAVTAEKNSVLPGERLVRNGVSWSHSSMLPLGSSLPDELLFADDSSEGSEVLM
Summary of the method: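 IC50 from 4-parameter logistic fit of phospho-Mer levels, quantified by ELISA against a phospho-Mer standard in lysates of MERTK-transfected 293A cells. Cells exposed 1 h to 8-point serial dilutions, serum-free, 0.3% DMSO; controls: DMSO (100%) and reference inhibitor (0%).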

[3] = protocol of Example B-2 (other compounds)

Human KDR (residues 790-1356), sequence (P35968 790-1356): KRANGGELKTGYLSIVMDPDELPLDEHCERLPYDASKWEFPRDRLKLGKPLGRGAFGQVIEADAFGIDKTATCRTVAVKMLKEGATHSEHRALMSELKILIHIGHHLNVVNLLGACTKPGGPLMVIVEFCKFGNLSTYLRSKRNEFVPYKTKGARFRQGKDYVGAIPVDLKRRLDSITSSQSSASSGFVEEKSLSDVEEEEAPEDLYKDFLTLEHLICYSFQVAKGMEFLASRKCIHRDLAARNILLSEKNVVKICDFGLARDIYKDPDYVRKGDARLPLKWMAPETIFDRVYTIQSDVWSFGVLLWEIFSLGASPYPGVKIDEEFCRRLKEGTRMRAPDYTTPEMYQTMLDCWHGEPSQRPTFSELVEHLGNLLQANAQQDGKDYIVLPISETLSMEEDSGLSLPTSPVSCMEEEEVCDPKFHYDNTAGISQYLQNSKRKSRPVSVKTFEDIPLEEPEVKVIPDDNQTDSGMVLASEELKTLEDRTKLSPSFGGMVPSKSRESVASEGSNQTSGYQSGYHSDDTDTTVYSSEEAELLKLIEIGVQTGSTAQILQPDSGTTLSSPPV

| IC50 ([1]; protocol of Example B-2) [nM] | IC50 [2] [nM] | IC50 [1, 3] [nM] | Compound |
| --- | --- | --- | --- |
| < 100 | < 100 |  | COc1cc2nccc(Oc3ccc(NC(=O)c4c(C)nc(C)c(-c5ccc(F)cc5CO)c4O)cc3F)c2nc1OC [Compound 518, N-[4-[(6,7-dimethoxy-1,5-naphthyridin-4-yl)oxy]-3-fluorophenyl]-5-[4-fluoro-2-(hydroxymethyl]phenyl]-4-hydroxy-2,6-dimethylpyridine-3-carboxamide] |
| < 100 | < 100 |  | C=C(C)c1cnc2c(Oc3ccc(NC(=O)c4cnc(C)c(-c5ccc(F)cc5)c4O)cc3F)ccnc2c1 [Compound 456, 5-(4-fluorophenyl)-N-[3-fluoro-4-[(7-prop-1-en-2-yl-1,5-naphthyridin-4-yl)oxy]phenyl]-4-hydroxy-6-methylpyridine-3-carboxamide] |
| > 300 | < 100 |  | COc1ccc2nccc(Oc3ccc(NC(=O)c4c(C)n(C)cc(-c5ccc(F)cc5C)c4=O)cc3F)c2n1 [Compound 483, N-[3-fluoro-4-[(6-methoxy-1,5-naphthyridin-4-yl)oxy]phenyl]-5-(4-fluoro-2-methylphenyl)-1,2-dimethyl-4-oxopyridine-3-carboxamide] |
| > 300 | > 300 |  | COc1cnc2c(Oc3ccc(NC(=O)c4cc(C)nn(-c5ccc(F)cc5)c4=O)cc3F)ccnc2c1 [Compound 521, N-[3-fluoro-4-[(7-methoxy-1,5-naphthyridin-4-yl)oxy]phenyl]-2-(4-fluorophenyl)-6-methyl-3-oxopyridazine-4-carboxamide] |
| 100 to 300 | < 100 |  | COc1nc2c(Oc3ccc(NC(=O)c4c(C)nc(C)c(-c5ccc(F)cc5)c4O)cc3F)ccnc2cc1C [Compound 459, N-[3-fluoro-4-[(6-methoxy-7-methyl-1,5-naphthyridin-4-yl)oxy]phenyl]-5-(4-fluorophenyl)-4-hydroxy-2,6-dimethylpyridine-3-carboxamide] |
| > 300 | < 100 |  | CCn1cc(C(=O)Nc2ccc(Oc3ccnc4cc(OC)c(OC)nc34)c(F)c2)c(=O)c(-c2ccc(F)cc2)c1CF [Compound 562, N-[4-[(6,7-Dimethoxy-1,5-naphthyridin-4-yl)oxy]-3-fluorophenyl]-1-ethyl-6-(fluoromethyl)-5-(4-fluorophenyl)-4-oxopyridine-3-carboxamide] |
| 100 to 300 | < 100 |  | COc1cc2nccc(Oc3ccc(NC(=O)c4c(C)c(C)nn(-c5ccc(F)cc5)c4=O)cc3F)c2nc1OC [Compound 524, N-[4-[(6,7-dimethoxy-1,5-naphthyridin-4-yl)oxy]-3-fluorophenyl]-2-(4-fluorophenyl)-5,6-dimethyl-3-oxopyridazine-4-carboxamide] |
| 100 to 300 | < 100 |  | COc1cc2nccc(Oc3ccc(NC(=O)c4c(C)n(C)c(C)c(-c5ccc(F)cc5)c4=O)cc3F)c2nc1OC [Compound 511, N-[4-[(6,7-dimethoxy-1,5-naphthyridin-4-yl)oxy]-3-fluorophenyl]-5-(4-fluorophenyl)-1,2,6-trimethyl-4-oxopyridine-3-carboxamide] |
| < 100 | < 100 |  | CCc1ncc(C(=O)Nc2ccc(Oc3ccnc4cc(OC)c(OC)nc34)c(F)c2)c(O)c1-c1ccc(F)cc1 [Compound 504, N-[4-[(6,7-dimethoxy-1,5-naphthyridin-4-yl)oxy]-3-fluorophenyl]-6-ethyl-5-(4-fluorophenyl)-4-hydroxypyridine-3-carboxamide] |

Continued, compound first:

| Compound | IC50 ([1]; protocol of Example B-2) [nM] | IC50 [2] [nM] | IC50 [1, 3] [nM] |
| --- | --- | --- | --- |
| C=C(C)c1cnc2c(Oc3ccc(NC(=O)c4cnc(C)c(-c5ccc(F)cc5C)c4O)cc3F)ccnc2c1 [Compound 450, 5-(4-fluoro-2-methylphenyl)-N-[3-fluoro-4-[(7-prop-1-en-2-yl-1,5-naphthyridin-4-yl)oxy]phenyl]-4-hydroxy-6-methylpyridine-3-carboxamide] | 100 to 300 | < 100 |  |
| COc1cnc2c(Oc3ccc(NC(=O)c4cc(C)nn(-c5ccc(F)cc5)c4=O)cc3)ccnc2c1 [Compound 522, 2-(4-fluorophenyl)-N-[4-[(7-methoxy-1,5-naphthyridin-4-yl)oxy]phenyl]-6-methyl-3-oxopyridazine-4-carboxamide] | > 300 | > 300 |  |
| COc1cc2nccc(Oc3ccc(NC(=O)c4cnc(C)c(-c5ccc(F)cc5)c4O)cc3F)c2nc1C [Compound 541, N-[3-fluoro-4-[(7-methoxy-6-methyl-1,5-naphthyridin-4-yl)oxy]phenyl]-5-(4-fluorophenyl)-4-hydroxy-6-methylpyridine-3-carboxamide] | < 100 | < 100 |  |
| C=C(C)c1cnc2c(Oc3ccc(NC(=O)c4cnc(C)c(-c5ccc(F)cc5)c4O)cc3)ccnc2c1 [Compound 454, 5-(4-fluorophenyl)-4-hydroxy-6-methyl-N-[4-[(7-prop-1-en-2-yl-1,5-naphthyridin-4-yl)oxy]phenyl]pyridine-3-carboxamide] | < 100 | < 100 |  |
| COc1cc2nccc(Oc3ccc(NC(=O)c4c(C)n(C)cc(-c5ccc(F)cc5C)c4=O)cc3F)c2nc1OC [Compound 481, N-[4-[(6,7-dimethoxy-1,5-naphthyridin-4-yl)oxy]-3-fluorophenyl]-5-(4-fluoro-2-methylphenyl)-1,2-dimethyl-4-oxopyridine-3-carboxamide] | 100 to 300 | < 100 |  |
| COc1cc2nccc(Oc3ccc(NC(=O)c4cn(CC(F)(F)F)c(C)c(-c5ccc(F)cc5)c4=O)cc3)c2cc1OC [Compound 260, N-[4-(6,7-Dimethoxyquinolin-4-yl)oxyphenyl]-5-(4-fluorophenyl)-6-methyl-4-oxo-1-(2,2,2-trifluoroethyl)pyridine-3-carboxamide] |  | < 100 | > 300 |
| COCCOc1ccc2nccc(Oc3ccc(NC(=O)c4cnc(C)c(-c5ccc(F)cc5)c4O)cc3F)c2n1 [Compound 348, N-[3-fluoro-4-[[6-(2-methoxyethoxy)-1,5-naphthyridin-4-yl]oxy]phenyl]-5-(4-fluorophenyl)-4-hydroxy-6-methylpyridine-3-carboxamide] |  | < 100 | 100 to 300 |
| CCc1nc(C)c(-c2ccc(F)cc2)c(O)c1C(=O)Nc1ccc(Oc2ccnc3ccc(OC)nc23)cc1 [Compound 509, 2-ethyl-5-(4-fluorophenyl)-4-hydroxy-N-[4-[(6-methoxy-1,5-naphthyridin-4-yl)oxy]phenyl]-6-methylpyridine-3-carboxamide] | < 100 | < 100 |  |
| COc1nc2c(Oc3ccc(NC(=O)c4cnc(C)c(-c5ccc(F)cc5)c4O)cc3F)ccnc2cc1C [Compound 458, N-[3-fluoro-4-[(6-methoxy-7-methyl-1,5-naphthyridin-4-yl)oxy]phenyl]-5-(4-fluorophenyl)-4-hydroxy-6-methylpyridine-3-carboxamide] | 100 to 300 | < 100 |  |
| COc1cc2nccc(Oc3ccc(NC(=O)c4c(C)ncc(-c5ccc(F)cc5C)c4O)cc3F)c2nc1OC [Compound 479, N-[4-[(6,7-dimethoxy-1,5-naphthyridin-4-yl)oxy]-3-fluorophenyl]-5-(4-fluoro-2-methylphenyl)-4-hydroxy-2-methylpyridine-3-carboxamide] | < 100 | < 100 |  |
| COCCOc1nc2c(Oc3ccc(NC(=O)c4cn(C)c(CF)c(-c5ccc(F)cc5)c4=O)cc3F)ccnc2cc1OC [Compound 557, N-[3-Fluoro-4-[[7-methoxy-6-(2-methoxyethoxy)-1,5-naphthyridin-4-yl]oxy]phenyl]-6-(fluoromethyl)-5-(4-fluorophenyl)-1-methyl-4-oxopyridine-3-carboxamide] | 100 to 300 | < 100 |  |
